Publication PMC8395040 (International Journal of Molecular Sciences, 2021)
Read-outs that look alike come from different tables or passages of the source.

Experiments:
HT29 = experiment: MTT cytotoxicity assay, HT29; format: cell-based; conditions: Homo sapiens; for cytotoxicity at 50 µM: read-out: % Cytotoxicity (50 µM) HT29; for IC50: 0.05–50 µM
Procedure: (§1) Cytotoxicity assays were performed by using the MTT reduction method as described previously. Briefly, cancer cell lines were plated in flat-bottom 96-well plates at a cell concentration of 5 × 10^3 cells/well for the fastest growing lines, such as HEK293 and HT29 cells and 1 × 10^4 cells/well for more slowly growing lines, such as HCT116, H1975, BxPC-3, AsPC-1, B16-F10 and DAOY. Then, cells were incubated with the synthesised compounds at different concentrations (from 0.05 to 50 µM) in 200 µL with 10% FBS in RPMI 1640 or DMEM F12 culture medium at 37 °C for 72 h. Later, 10 µL of MTT were added at a final concentration of 0.5 mg/mL, incubated at 37 °C for 4 h, and then solubilised with 10% sodium dodecyl sulphate (SDS) in 0.1 mM HCl and incubated overnight at 37 °C. Formazan formation was measured at 570 nm in a multiwell plate reader (Cytation 5, Biotek Instruments, Winooski, VT, USA). Three independent biological replicates were performed.

HCT116 = experiment: MTT cytotoxicity assay, HCT116; format: cell-based; conditions: Homo sapiens; for cytotoxicity at 50 µM: read-out: % Cytotoxicity (50 µM) HCT116; for IC50: 0.05–50 µM
Procedure: as §1

HEK293 = experiment: MTT cytotoxicity assay, HEK293 control cells; format: cell-based, human; conditions: MTT, 72 h, non-cancer cell line;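 note: Read-out is formazan absorbance at 570 nm from MTT reduction in 96-well plates, with three independent biological replicates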
[1] = MTT cytotoxicity assay, HEK293 control cells; format: cell-based, human; conditions: human, HEK293 cells; 50 µM, 72 h, MTT;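 note: Read-out is formazan absorbance at 570 nm from MTT reduction in 96-well plates, with three independent biological replicates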
H1975 = experiment: MTT cytotoxicity assay, H1975; format: cell-based; conditions: Homo sapiens; for cytotoxicity at 50 µM: read-out: % Cytotoxicity (50 µM) H1975; for IC50: 0.05–50 µM
Procedure: as §1

Daoy = experiment: MTT cytotoxicity assay, Daoy; format: cell-based, human; conditions: 72 h; for cytotoxicity at 50 µM: read-out: % Cytotoxicity (50 µM) DAOY; for IC50: 0.05–50 µM;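 for all read-outs here: viability read as formazan absorbance at 570 nm after MTT reduction, three independent biological replicates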
AsPC-1 = experiment: MTT cytotoxicity assay, AsPC-1; format: cell-based; conditions: Homo sapiens, ASPC1, 72 h, 0.05–50 µM
Procedure: as §1

BxPC-3 = experiment: MTT cytotoxicity assay, BxPC-3; format: cell-based; conditions: Homo sapiens, 72 h, 0.05–50 µM
Procedure: as §1

Compound	cytotoxicity at 50 µM (HT29; HT-29, 50 µM, 72 h, MTT)	cytotoxicity at 50 µM (HCT116; HCT-116, 50 µM, 72 h, MTT)	IC50 (HEK293; Homo sapiens, HEK293)	cytotoxicity at 72 h, 50 µM [1]	melting point	cytotoxicity at 50 µM (H1975; NCI-H1975, 50 µM, 72 h, MTT)	cytotoxicity at 50 µM (Daoy; Homo sapiens, Daoy, 50 µM, MTT)	further results
O=c1[nH]cc(F)c(=O)[nH]1 [Compound 5-FU, 5-fluorouracil, reference compound]	66 ± 4.9%	62 ± 1.3%	0.83 ± 0.07 µM	< 50%	–	–	–	IC50 (HT29; HT-29, MTT, 72 h): 0.51 ± 0.06 µM; IC50 (HCT116; HCT-116, MTT, 72 h): 31 ± 0.3 µM
CCCCCn1cnc2c(-c3ccc(OC(F)(F)F)cc3)nc(N3CCN(c4ccc(Cl)cc4)CC3)nc21 [Compound 4l, 9-Pentyl-2-(4-(4-clorophenyl)piperazin-1-yl)-6-(4-(trifluoromethoxy)phenyl)-9H-purine]	< 50%	< 50%	–	< 50%	147 to 149 °C	< 50%	< 50%	–
CCCCCn1cnc2c(-c3ccc(OC(F)(F)F)cc3)nc(NC3CCCCC3)nc21 [Compound 4e, N-cyclohexyl-9-pentyl-6-(4-(trifluoromethoxy)phenyl)-9H-purin-2-amine]	–	–	> 50 µM	< 50%	108 to 110 °C	–	–	cytotoxicity at 50 µM (HT29; HT-29, 72 h): < 50%; IC50 (HT29; HT-29, MTT, 72 h): > 50 µM; IC50 (AsPC-1): > 50 µM; IC50 (BxPC-3): > 50 µM; cytotoxicity at 50 µM (H1975; NCI-H1975, 72 h): < 50%; IC50 (H1975; NCI-H1975, MTT, 72 h): 23 ± 0.3 µM; cytotoxicity at 50 µM (HCT116; HCT-116, 72 h): < 50%; IC50 (HCT116; HCT-116, MTT, 72 h): > 50 µM; IC50 (Daoy; Homo sapiens, Daoy, MTT): > 50 µM; cytotoxicity at 50 µM (Daoy; Homo sapiens, Daoy): < 50%
CCCCCCn1cnc2c(-c3ccc(OC(F)(F)F)cc3)nc(NC3CCCCC3)nc21 [Compound 4f, N-cyclohexyl-9-hexyl-6-(4-(trifluoromethoxy)phenyl)-9H-purin-2-amine]	< 50%	< 50%	–	< 50%	84 to 86 °C	< 50%	< 50%	–
CCCCCCn1cnc2c(-c3ccc(OC(F)(F)F)cc3)nc(NC3CCCC3)nc21 [Compound 4c, N-cyclopentyl-9-hexyl-6-(4-(trifluoromethoxy)phenyl)-9H-purin-2-amine]	–	–	> 50 µM	< 50%	58 to 60 °C	–	–	cytotoxicity at 50 µM (HT29; HT-29, 72 h): < 50%; IC50 (HT29; HT-29, MTT, 72 h): > 50 µM; IC50 (AsPC-1): > 50 µM; IC50 (BxPC-3): > 50 µM; cytotoxicity at 50 µM (H1975; NCI-H1975, 72 h): 19 ± 0.8%; IC50 (H1975; NCI-H1975, MTT, 72 h): 19 ± 0.8 µM; cytotoxicity at 50 µM (HCT116; HCT-116, 72 h): < 50%; IC50 (HCT116; HCT-116, MTT, 72 h): > 50 µM; IC50 (Daoy; Homo sapiens, Daoy, MTT): 31 ± 0.9 µM; cytotoxicity at 50 µM (Daoy; Homo sapiens, Daoy): 69 ± 0.9%
CCCCCCn1cnc2c(-c3ccc(OC(F)(F)F)cc3)nc(N3CCN(c4ccc(Cl)cc4)CC3)nc21 [Compound 4m, 2-(4-(4-Chlorophenyl)piperazin-1-yl)-9-hexyl-6-(4-(trifluoromethoxy)phenyl)-9H-purine]	< 50%	< 50%	–	< 50%	126 to 128 °C	< 50%	< 50%	–
COc1cc([C@@H]2c3cc4c(cc3[C@@H](O[C@@H]3O[C@@H]5CO[C@@H](C)O[C@H]5[C@H](O)[C@H]3O)[C@H]3COC(=O)[C@H]23)OCO4)cc(OC)c1O [Etoposide, reference compound]	–	90 ± 0.5%	8.4 ± 0.7 µM	65 ± 0.7%	–	60 ± 1.1%	–	IC50 (H1975; NCI-H1975, MTT, 72 h): 40 ± 0.2 µM; IC50 (HCT116; HCT-116, MTT, 72 h): 9.8 ± 0.5 µM
CCCCCCn1cnc2c(-c3ccc(OC(F)(F)F)cc3)nc(N3CCN(c4ccccc4)CC3)nc21 [Compound 4k, 9-Hexyl-2-(4-phenylpiperazin-1-yl)-6-(4-(trifluoromethoxy)phenyl)-9H-purine]	< 50%	< 50%	–	< 50%	99 to 101 °C	< 50%	< 50%	–
CCCCCCn1cnc2c(-c3ccc(OC(F)(F)F)cc3)nc(N3CCN(c4ccc([N+](=O)[O-])cc4)CC3)nc21 [Compound 4o, 9-Hexyl-2-(4-(4-nitrophenyl)piperazin-1-yl)-6-(4-(trifluoromethoxy)phenyl)-9H-purine]	< 50%	< 50%	–	< 50%	142 to 144 °C	< 50%	< 50%	–
CCCCCn1cnc2c(-c3ccc(OC(F)(F)F)cc3)nc(N3CCN(c4ccccc4)CC3)nc21 [Compound 4j, 9-Pentyl-2-(4-phenylpiperazin-1-yl)-6-(4-(trifluoromethoxy)phenyl)-9H-purine]	< 50%	< 50%	–	< 50%	–	< 50%	< 50%	–
CCCCCn1cnc2c(-c3ccc(OC(F)(F)F)cc3)nc(N3CCN(c4ccc(OC)cc4)CC3)nc21 [Compound 4p, 9-Pentyl-2-(4-(4-methoxyphenyl)piperazin-1-yl)-6-(4-(trifluoromethoxy)phenyl)-9H-purine]	< 50%	< 50%	–	< 50%	118 to 120 °C	< 50%	< 50%	–
Nc1ccn([C@@H]2O[C@H](CO)[C@@H](O)C2(F)F)c(=O)n1 [Gemcitabine, reference compound]	–	–	7.5 ± 0.6 µM	–	–	–	–	IC50 (AsPC-1): 0.3 ± 0.09 µM; IC50 (BxPC-3): 0.2 ± 0.07 µM
CCCCn1cnc2c(-c3ccc(OC(F)(F)F)cc3)nc(NC3CCCCC3)nc21 [Compound 4d, 9-Butyl-N-cyclohexyl-6-(4-(trifluoromethoxy)phenyl)-9H-purin-2-amine]	< 50%	< 50%	–	< 50%	–	< 50%	< 50%	–
N.N.[Cl][Pt][Cl] [Cisplatin, reference compound]	–	–	–	–	–	–	–	IC50 (Daoy; MTT): 12 ± 0.7 µM; IC50 (HEK293): 12 ± 1.4 µM
CCCCCCn1cnc2c(-c3ccc(OC(F)(F)F)cc3)nc(N3CCN(c4ccc(OC)cc4)CC3)nc21 [Compound 4q, 9-Hexyl-2-(4-(4-methoxyphenyl)piperazin-1-yl)-6-(4-(trifluoromethoxy)phenyl)-9H-purine]	< 50%	< 50%	–	< 50%	144 to 145 °C	< 50%	< 50%	–
CCCCCn1cnc2c(-c3ccc(OC(F)(F)F)cc3)nc(N3CCN(c4ccc([N+](=O)[O-])cc4)CC3)nc21 [Compound 4n, 9-Pentyl-2-(4-(4-nitrophenyl)piperazin-1-yl)-6-(4-(trifluoromethoxy)phenyl)-9H-purine]	< 50%	< 50%	–	< 50%	180 to 181 °C	< 50%	< 50%	–
CCCCCCn1cnc2c(-c3ccc(OC(F)(F)F)cc3)nc(NCC3CCCCC3)nc21 [Compound 4i, N-(cyclohexylmethyl)-9-hexyl-6-(4-(trifluoromethoxy)phenyl)-9H-purin-2-amine]	< 50%	< 50%	–	< 50%	–	< 50%	< 50%	–
CCCCCn1cnc2c(-c3ccc(OC(F)(F)F)cc3)nc(NC3CCCC3)nc21 [Compound 4b, N-cyclopentyl-9-pentyl-6-(4-(trifluoromethoxy)phenyl)-9H-purin-2-amine]	–	–	> 50 µM	< 50%	–	–	–	cytotoxicity at 50 µM (HT29; HT-29, 72 h): < 50%; IC50 (HT29; HT-29, MTT, 72 h): > 50 µM; IC50 (AsPC-1): 23.2 ± 0.2 µM; IC50 (BxPC-3): > 50 µM; cytotoxicity at 50 µM (H1975; NCI-H1975, 72 h): 30 ± 1%; IC50 (H1975; NCI-H1975, MTT, 72 h): 30 ± 1 µM; cytotoxicity at 50 µM (HCT116; HCT-116, 72 h): 53 ± 0.9%; IC50 (HCT116; HCT-116, MTT, 72 h): 47 ± 0.9 µM; IC50 (Daoy; Homo sapiens, Daoy, MTT): > 50 µM; cytotoxicity at 50 µM (Daoy; Homo sapiens, Daoy): 94 ± 0.4%
CCCCn1cnc2c(-c3ccc(OC(F)(F)F)cc3)nc(NCC3CCCCC3)nc21 [Compound 4g, 9-Butyl-N-(cyclohexylmethyl)-6-(4-(trifluoromethoxy)phenyl)-9H-purin-2-amine]	< 50%	< 50%	–	< 50%	88 to 89 °C	< 50%	< 50%	–
